Tests used:
[1] = tested on: primary mouse cortical neurons (E17, DIV4); assay: Neurite outgrowth in primary mouse cortical neurons; type: cell-based; details: 2 days; 1 μM midi-GAGR, dextran, alginate; 0.1 μM LA-GAGR; 0.01 μM HA-GAGR
Procedure: To analyze the effect of polysaccharides on neurite outgrowth, primary mouse cortical neurons were treated with vehicle (H2O) or 1 μM of dextran, alginate, or midi-GAGR, 0.01 μM of HA-GAGR, or 0.1 μM of LA-GAGR for 2 days prior to immunocytochemistry using anti-α-tubulin antibody and secondary Alexa488nm antibody. An etched grid coverslip containing 200 numbered boxes was used to select neurons objectively for image acquisition and analysis. A total of 24 boxes were randomly selected per treatment group. All the neurons having total neurite length longer than 4 times of the diameter of neuron cell body were chosen for image analysis. The total length of the neurites of each neuron was measured using Metamorph and used to calculate average total neurite length. To examine the effect of polysaccharides on the phosphorylation (activation) of nuclear CREB, neurons were stained with anti-pCREB antibody (Abcam & Santa Cruz biotechnologies, 2nd antibody with Alexa568nm), anti-α-tubulin antibody (Sigma, 2nd antibody with Alexa488nm), and DAPI (Sigma) after two-day incubation with vehicle (H2O) or 1 μM of dextran, alginate, or midi-GAGR, 0.01 μM of HA-GAGR, or 0.1 μM of LA-GAGR. […] The images of neurons on coverslips were taken by confocal microscopy at the same gain (850), offset (˜0.01) and exposure time (2 sec). The intensity of the staining of nuclear pCREB was measured using Metamorph and used to calculate average intensity. In addition, the phosphorylation of CREB in the cytosols of mouse cortical neurons treated with polysaccharides were detected by immunoblotting. Primary mouse neurons were dissected from 16 mouse embryos (E17) and plated in the wells of 6-well plates (1×10^6 cells/well), differentiated for 6 days, and treated with polysaccharides for 48 h. […] The protein bands on blots recognized by anti-pCREB (Santa Cruz Biotechnologies) and anti-CREB antibodies were detected on Amersham Hyperfilm™ ECL films (GE Healthcare Life Science) using SuperSignal® West Pico Chemiluminescent Substrate (Thermo Scientific).

[2] = tested on: phosphorylated CREB in mouse embryonic cortical neurons; assay: Nuclear p-CREB immunostaining in cortical neurons (Example 2); type: cell-based; details: 1 μM, 24 h
Procedure: (§1) Differentiated PC12 cells and mouse embryonic cortical neurons (E17, DIV14) were treated with mock, dextran, alginate, HA-GAGR or midi-GAGR (1 μM) for 24 h and fixed in 3.7% paraformaldehyde. The fixed cells and neurons were immunostained with antibodies against α-tubulin and phosopho-CREB (p-CREB) along with DAPI (nucleus).

[3] = tested on: Differentiated dopaminergic PC12 cells; assay: LIVE/DEAD viability of differentiated PC12 cells exposed to 6-OHDA; type: cell-based; details: 1 μM for 6 h, then 30 μM 6-OHDA for 24 h
Procedure: Differentiated dopaminergic PC12 cells and primary mouse embryonic cortical neurons (E17, DIV14) were treated with mock (H2O) or 1 μM of dextran, alginate, HA-GAGR or midi-GAGR for 6 h and insulated by oxidative stressors (30 μM 6-OHDA [PC12] and 10 μM amyloid β peptide [cortical neurons]) for 24 h.

[4] = tested on: phosphorylated CREB in differentiated PC12 cells; assay: Nuclear p-CREB immunostaining in PC12 cells; type: cell-based; details: 1 μM, 24 h
Procedure: as §1

[5] = tested on: Mouse cortical neurons (E17, DIV5); assay: LIVE/DEAD assay, pre-treated mouse cortical neurons with 4HNE, H2O2 or Aβ42; type: cell-based; details: pre-treatment 24 h (1 μM midi-GAGR, dextran, alginate; 0.1 μM LA-GAGR; 0.01 μM HA-GAGR); for neuron death after Aβ42 peptide: 2 μM Aβ42 48 h, vehicle about 30%; for neuron death after 4HNE: 10 μM 4HNE 24 h, vehicle ~26%; for neuron death after H2O2: 50 μM H2O2 24 h, vehicle ~25%
Text: (§2) The protective effect of polysaccharides on primary cortical neurons from 4HNE, H2O2, and Aβ42 peptide (Sigma) was examined using LIVE/DEAD® Viability/Cytotoxicity Assay Kit (Life Technologies). Female pregnant mice (BALB/C, E17, Charles River Laboratories International, Inc.) or female pregnant SD rats (E17, bred in house) were anesthetized and dissected to obtain 8-9 embryos per animal. Cortical neurons were isolated from embryonic brains and differentiated on poly-L-lysine-coated coverslips in B27/neurobasal medium. For drug treatment before free radical treatment, mouse cortical neurons (5 days in vitro [DIV5.]) were treated with vehicle (H2O), 1 μM of 5 kD dextran (Sigma), alginate (Sigma), midi-GAGR, 0.01 μM of high acyl gellan gum (HA-GAGR, CPKelco Co.), or 0.1 μM of LA-GAGR for 24 h and then treated with 10 μM 4HNE or 50 μM H2O2 for 24 h, or 2 μM A[…]42 peptide for 48 h prior to viability/cytotoxicity assay. For drug co-treatment with free radicals, rat cortical neurons (DIV5) were treated with 1 μM of dextran, alginate, or midi-GAGR, 0.01 μM of HA-GAGR, or 0.1 μM of LA-GAGR along with either 10 μM 4HNE (24 h) or 2 μM Aβ42 peptide (48 h). To examine the extent to which midi-GAGR-mediated neuroprotection depends on FGFR1, rat cortical neurons (E17, DIV5) were pre-treated with 4 μM SU5402 (Sigma) for 6 h and treated with 10 μM 4HNE and either vehicle or 1 μM midi-GAGR for 24 h prior to cell viability/cytotoxicity assay. As controls, neurons were treated with SU5402, midi-GAGR, 4HNE, 4HNE plus midi-GAGR, or SU5402 plus midi-GAGR.
For cell viability/cytotoxicity measurement, neurons on glass coverslips were incubated in 1×PBS containing 2 μM calcein AM (live cells: green) and 4 μM ethidium homodimer-1 (dead cells: red) for 10 min at 37° C. Immediately thereafter, neurons were imaged by 10×objective using a fluorescence Olympus IX71 microscope (Olympus America Inc., Center Valley, Pa.) and, for the acquisition of high-quality images, using TCS SP5 multi-photon laser scanning confocal microscope.
Midi-GAGR attenuated neurite atrophy caused by free reactive radicals. It is now shown herein that midi-GAGR protect neurons from the death caused by free radical insults. The extent to which midi-GAGR protects the primary culture of rodent cortical neurons from 4HNE and H2O2 was determined. In addition to the radicals, amyloid β peptide (Aβ42) was also tested. Aβ42 peptide is a major causative factor that causes oxidative stress and neuron death. Mouse cortical neurons (E17, DIV5) were treated with 10 μM 4HNE (24 h), 50 μM H2O2 (24 h), or 2 μM Aβ42 peptide (48 h) after the treatment of the neurons with vehicle (H2O), midi-GAGR (1 μM), dextran (1 μM), alginate (1 μM), LA-GAGR (0.1 μM), or HA-GAGR (0.01 μM) for 24 h. The concentrations of 4HNE, H2O2, and Aβ42 peptide were chosen according to their patho-physiological concentrations. The concentrations of LA-GAGR and HA-GAGR were chosen because, within the same volume, the total numbers of sugar units in the polysaccharides at the concentrations are close to that of 1 μM midi-GAGR. The viability of neurons was assessed using LIVE/DEAD® Viability/Cytotoxicity Assay Kit in which membrane-permeant calcein AM is cleaved by esterase in live cells, thus yielding green fluorescence, and membrane-impermeant ethidium homodimer-1 stains the nucleic acids of plasma membrane-compromised cells with red fluorescence. The numbers of green (live) and red (dead) neurons in each condition were counted using Metamorph. Although the intensities of green fluorescent signals in neurons treated with either free radicals or Aβ42 peptide were weak, the neurons were included in the counting. About 8-9% of vehicle-treated neurons died during the process of live/dead cell assay (FIGS. 23A-23F, FIGS. 24A-24C).

[6] = tested on: pCREB in mouse cortical neurons (E17, DIV6); assay: Nuclear pCREB in midi-GAGR-treated neurons after signaling inhibitors; type: cell-based; details: inhibitor 6 h (SU5402 4 μM, staurosporine 3 nM, U0126 10 μM, LY294002 20 μM, KN-62 10 μM, PF-573228 1 μM), then 1 μM midi-GAGR 48 h
Procedure: To analyze the effect of polysaccharides on neurite outgrowth, primary mouse cortical neurons were treated with vehicle (H2O) or 1 μM of dextran, alginate, or midi-GAGR, 0.01 μM of HA-GAGR, or 0.1 μM of LA-GAGR for 2 days prior to immunocytochemistry using anti-α-tubulin antibody and secondary Alexa488nm antibody. An etched grid coverslip containing 200 numbered boxes was used to select neurons objectively for image acquisition and analysis. A total of 24 boxes were randomly selected per treatment group. All the neurons having total neurite length longer than 4 times of the diameter of neuron cell body were chosen for image analysis. The total length of the neurites of each neuron was measured using Metamorph and used to calculate average total neurite length. To examine the effect of polysaccharides on the phosphorylation (activation) of nuclear CREB, neurons were stained with anti-pCREB antibody (Abcam & Santa Cruz biotechnologies, 2nd antibody with Alexa568nm), anti-α-tubulin antibody (Sigma, 2nd antibody with Alexa488nm), and DAPI (Sigma) after two-day incubation with vehicle (H2O) or 1 μM of dextran, alginate, or midi-GAGR, 0.01 μM of HA-GAGR, or 0.1 μM of LA-GAGR. […] The images of neurons on coverslips were taken by confocal microscopy at the same gain (850), offset (˜0.01) and exposure time (2 sec). The intensity of the staining of nuclear pCREB was measured using Metamorph and used to calculate average intensity. In addition, the phosphorylation of CREB in the cytosols of mouse cortical neurons treated with polysaccharides were detected by immunoblotting. Primary mouse neurons were dissected from 16 mouse embryos (E17) and plated in the wells of 6-well plates (1×10^6 cells/well), differentiated for 6 days, and treated with polysaccharides for 48 h. Then, neurons were harvested and lysed in 1% Igepal CA-630 (Sigma)-containing PMEE buffer plus protease and phosphatase inhibitor cocktails (Sigma) for protein extraction. Extracted proteins were separated in 4-12% NuPAGE Bis-Tris protein gels (Life Technologies) and transferred to nitrocellulose membrane (GE Healthcare Life Science, Pittsburgh, Pa.) using a semidry blotter (Hoefer, Inc. San Francisco, Calif.). The protein bands on blots recognized by anti-pCREB (Santa Cruz Biotechnologies) and anti-CREB antibodies were detected on Amersham Hyperfilm™ ECL films (GE Healthcare Life Science) using SuperSignal® West Pico Chemiluminescent Substrate (Thermo Scientific).
Pharmacological agents were used to inhibit signaling molecules downstream of FGFR1 that mediate CREB phosphorylation. […] PF-573228 (PF, 1 μM) that inhibits FAK which sits at the bottleneck of the signaling pathway downstream of NCAM180 was also included to examine whether NCAM180 is involved in midi-GAGR-mediated CREB phosphorylation or not. […]

[7] = tested on: Rat cortical neurons (E17, DIV6); assay: LIVE/DEAD assay with FGFR1 inhibitor SU5402 and 4HNE; type: cell-based
Text: as §2, with “To examine the extent to which midi-GAGR-mediated neuroprotection depends on FGFR1, rat cortical neurons (E17, DIV5) were pre-treated with 4 μM SU5402 (Sigma) for 6 h and treated with 10 μM 4HNE and either vehicle or 1 μM midi-GAGR for 24 h prior to cell viability/cytotoxicity assay. As controls, neurons were treated with SU5402, midi-GAGR, 4HNE, 4HNE plus midi-GAGR, or SU5402 plus midi-GAGR.” left out

[8] = ABTS Antioxidant Assay Kit; type: biochemical; details: 10 μM polysaccharide
Procedure: The antioxidant capacity of midi-GAGR was measured using ABTS Antioxidant Assay Kit (Zenbio Co.). […] This was slightly stronger than antioxidant capacity of LA-GAGR (10 μM LA-GAGR=15.4 μM trolox) (Table 2).

[9] = tested on: pCREB in mouse cortical neurons; assay: Nuclear pCREB immunostaining in mouse cortical neurons (Example 4); type: cell-based; details: 48 h; 1 μM midi-GAGR, dextran, alginate; 0.1 μM LA-GAGR; 0.01 μM HA-GAGR
Procedure: (§3) To analyze the effect of polysaccharides on neurite outgrowth, primary mouse cortical neurons were treated with vehicle (H2O) or 1 μM of dextran, alginate, or midi-GAGR, 0.01 μM of HA-GAGR, or 0.1 μM of LA-GAGR for 2 days prior to immunocytochemistry using anti-α-tubulin antibody and secondary Alexa488nm antibody. An etched grid coverslip containing 200 numbered boxes was used to select neurons objectively for image acquisition and analysis. A total of 24 boxes were randomly selected per treatment group. All the neurons having total neurite length longer than 4 times of the diameter of neuron cell body were chosen for image analysis. The total length of the neurites of each neuron was measured using Metamorph and used to calculate average total neurite length. […] The intensity of the staining of nuclear pCREB was measured using Metamorph and used to calculate average intensity. In addition, the phosphorylation of CREB in the cytosols of mouse cortical neurons treated with polysaccharides were detected by immunoblotting. […] The protein bands on blots recognized by anti-pCREB (Santa Cruz Biotechnologies) and anti-CREB antibodies were detected on Amersham Hyperfilm™ ECL films (GE Healthcare Life Science) using SuperSignal® West Pico Chemiluminescent Substrate (Thermo Scientific). […]

[10] = tested on: pCREB in mouse cortical neurons; assay: pCREB immunoblotting of neuron cytosols; type: cell-based; details: 48 h; 1 μM midi-GAGR, dextran, alginate; 0.1 μM LA-GAGR; 0.01 μM HA-GAGR
Procedure: as §3

Row | Molecule | fold change in average total neurite length compared to vehicle [1] | neuron death after Aβ42 peptide [5] | neuron death after 4HNE [5] | neuron death after H2O2 [5] | average intensity of pCREB in midi-GAGR-treated neurons after inhibitor pre-treatment [6] | also measured
1 | alginate | did not enhance neuritogenesis | did not decrease | reduced | did not reduce | – | increase of the levels of nuclear p-CREB [2]: not significantly increased; 6-OHDA-induced cell death [3]: did not; increase of the levels of nuclear p-CREB [4]: not significantly increased
2 | CS(=O)(=O)c1cccc(CNc2nc(Nc3ccc4c(c3)CCC(=O)N4)ncc2C(F)(F)F)c1 [PF-573228] | – | – | – | – | did not decrease | –
3 | Cc1c[nH]c(/C=C2\C(=O)Nc3ccccc32)c1CCC(=O)O [SU5402] | – | – | – | – | significantly decreased | percent of dead cells, pre-treatment then 4HNE ([7]; SU5402 4 μM 6 h, then 10 μM 4HNE 24 h): ~80%; percent of dead cells without 4HNE ([7]; SU5402 4 μM, midi-GAGR 1 μM): did not increase
4 | N#CC(=C(/N)Sc1ccccc1N)/C(C#N)=C(\N)Sc1ccccc1N [U0126] | – | – | – | – | significantly decreased | –
5 | [D-Glc(β1→4)D-GlcA(β1→4)D-Glc(β1→4)L-Rha(α1→3]n [LA-GAGR] | ~1.6 fold | ~10% | 10% | ~13% | – | Antioxidant capacity, ABTS assay [8]: 15.4 μM Trolox; average intensity of nuclear pCREB compared to vehicle [9]: ~2 fold; levels of pCREB by immunoblotting compared to control [10]: significantly increased
6 | CN([C@@H](Cc1ccc(OS(=O)(=O)c2cccc3cnccc23)cc1)C(=O)N1CCN(c2ccccc2)CC1)S(=O)(=O)c1cccc2cnccc12 [KN-62] | – | – | – | – | decreased slightly but still statistically significantly | –

Reference: patent US10792301B2, “Therapeutic polysaccharide midi-GAGR and related materials and methods” (priority 2015, dated 2020)
